This passage reports IC50 results from patent US9718804B2, “GSK-3 inhibitors” (BRISTOL-MYERS SQUIBB COMPANY, priority 2013, dated 2017).

The structures appear in SMILES notation. Read-outs that look alike come from different tables or passages of the source.

For experiment [1], the target named is GSK3β (Homo sapiens, UniProt P49841). As to the kind of experiment: GSK3β kinase assay (Caliper LabChip, fluoresceinated peptide substrate). The format is biochemical. Put shortly:
(§1)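 Reactions run 20 hours at room temperature, stopped with EDTA. Phosphorylated and unphosphorylated fluoresceinated peptide separated electrophoretically on Caliper LabChip3000. Eleven compound concentrations tested; IC50 by non-linear regression.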

Experiment [2] deals with GSK3α (Homo sapiens, UniProt P49840). As to the kind of experiment: GSK3α kinase assay (Caliper LabChip, fluoresceinated peptide substrate). The format is biochemical. The method in brief: as §1
Chain of GSK3α (P49840 whole entry, species assumed): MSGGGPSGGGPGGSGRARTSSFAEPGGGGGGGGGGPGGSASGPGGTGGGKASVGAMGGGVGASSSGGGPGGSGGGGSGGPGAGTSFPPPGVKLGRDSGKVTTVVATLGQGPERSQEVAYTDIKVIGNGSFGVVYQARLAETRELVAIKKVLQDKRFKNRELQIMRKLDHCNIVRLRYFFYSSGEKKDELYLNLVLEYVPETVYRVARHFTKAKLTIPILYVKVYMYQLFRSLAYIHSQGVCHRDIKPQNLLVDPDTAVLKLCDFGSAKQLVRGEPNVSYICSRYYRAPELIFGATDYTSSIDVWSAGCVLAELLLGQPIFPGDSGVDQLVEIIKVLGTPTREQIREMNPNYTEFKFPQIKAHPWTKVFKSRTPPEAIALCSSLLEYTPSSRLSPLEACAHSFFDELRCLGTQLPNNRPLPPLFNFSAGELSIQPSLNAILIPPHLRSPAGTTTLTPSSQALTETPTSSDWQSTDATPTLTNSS
Experiment [3] relates to pTau. As to the kind of experiment: pTau assay (no method described). Format: cell-based.
The mark [4] stands for this setting: first value of the cell, 250 pM enzyme, 20 uM ATP, 20 hours at room temperature, read-out: GSK3β/α (nM): GSK3β IC50.

Chain of GSK3β (P49841 whole entry, species assumed): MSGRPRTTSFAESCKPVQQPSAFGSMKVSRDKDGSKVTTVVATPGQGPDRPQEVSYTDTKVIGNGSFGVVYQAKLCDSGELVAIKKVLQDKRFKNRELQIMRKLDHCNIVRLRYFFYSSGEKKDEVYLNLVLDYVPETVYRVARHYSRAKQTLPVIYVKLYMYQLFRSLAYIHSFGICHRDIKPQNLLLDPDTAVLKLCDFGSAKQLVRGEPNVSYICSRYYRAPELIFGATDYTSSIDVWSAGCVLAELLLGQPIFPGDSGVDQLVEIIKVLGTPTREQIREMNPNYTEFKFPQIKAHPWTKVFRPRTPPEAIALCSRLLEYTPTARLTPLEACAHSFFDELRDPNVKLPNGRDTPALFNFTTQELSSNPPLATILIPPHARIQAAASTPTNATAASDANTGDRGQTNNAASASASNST

Regarding `CC1CC1COc1cncc(NC(=O)c2ccnc(Nc3cccc(C(F)(F)F)n3)c2)c1` (stereo not drawn) [Example 126, N-(5-((2-Methylcyclopropyl)methoxy)pyridin-3-yl)-2-((6-(trifluoromethyl)pyridin-2-yl)amino)isonicotinamide], the IC50 in experiment [1] (setting [4]) is 9.7 nM; in experiment [2], 4.8 nM; in experiment [3], 3200 nM.
For the molecule `O=C(Nc1cncc(-c2cc(F)ccc2F)c1)c1ccnc(Nc2ccc(C(F)(F)F)cn2)c1` [Example 129, N-(5-(2,5-Difluorophenyl)pyridin-3-yl)-2-((5-(trifluoromethyl)pyridin-2-yl)amino)isonicotinamide], the figures for the IC50 in experiment [1] (setting [4]), in experiment [2] and in experiment [3] were 18 nM, 9.8 nM and 2100 nM, respectively.
Turning to `CC(C)S(=O)(=O)c1ccncc1NC(=O)c1ccnc(Nc2ccc(C(F)(F)F)cn2)c1` [Example 186, N-(4-(Isopropylsulfonyl)pyridin-3-yl)-2-((5-(trifluoromethyl)pyridin-2-yl)amino)isonicotinamide], the IC50 was 1.2 nM in experiment [1]; 0.04 nM in experiment [2] (second value of the cell, 250 pM enzyme, 20 uM ATP, 20 hours at room temperature, read-out: GSK3β/α (nM): GSK3α IC50); 2 nM in experiment [3].
`O=C(Nc1cncc(-c2cccc(F)c2F)c1)c1ccnc(Nc2cccc(C(F)(F)F)n2)c1` [Example 147, N-(5-(2,3-Difluorophenyl)pyridin-3-yl)-2-((6-(trifluoromethyl)pyridin-2-yl)amino)isonicotinamide]: the figures for the IC50 in experiment [1] (setting [4]), in experiment [2] and in experiment [3] were 2.3 nM, 44 nM and 380 nM, respectively.
In the case of `CC(C)C1(c2cc(Cl)ncc2NC(=O)c2ccnc(Nc3ccc(C(F)(F)F)cn3)c2)OCCO1` [Example 83, N-(6-Chloro-4-(2-isopropyl-1,3-dioxolan-2-yl)pyridin-3-yl)-2-((5-(trifluoromethyl)pyridin-2-yl)amino)isonicotinamide], the figures for the IC50 in experiment [1] (setting [4]), in experiment [2] and in experiment [3] were 1.1 nM, 0.55 nM and 57 nM, respectively.
For `O=C(Nc1cnccc1-c1ccccc1)c1ccnc(Nc2cccc(C(F)(F)F)n2)c1` [Example 2, N-(4-Phenylpyridin-3-yl)-2-((6-(trifluoromethyl)pyridin-2-yl)amino)isonicotinamide], in that order: 6.8 nM, 7.3 nM and 574 nM.
For `COc1ccc(-c2ccncc2NC(=O)c2ccnc(Nc3ccc(C(F)(F)F)cn3)c2)c(F)c1` [Example 55, N-(4-(2-Fluoro-4-methoxy-phenyl)pyridin-3-yl)-2-((5-(trifluoromethyl)pyridin-2-yl)amino)isonicotinamide], in that order: 3.2 nM, 0.89 nM and 86 nM.
The matching figures for `CC(O)c1c(NC(=O)c2ccnc(Nc3ccc(C(F)(F)F)cn3)c2)cnn1C` (stereo not drawn) [Example 208, N-(5-(1-Hydroxyethyl)-1-methyl-1H-pyrazol-4-yl)-2-((5-(trifluoromethyl)pyridin-2-yl)amino)isonicotinamide]: 3 nM, 3.6 nM and 120 nM.
For `O=C(Nc1cnccc1OCC(F)(F)F)c1ccnc(Nc2ccc(C(F)(F)F)cn2)c1` [Example 18, N-(4-(Trifluoroethoxy)pyridin-3-yl)-2-((5-(trifluoromethyl)pyridin-2-yl)amino)isonicotinamide], the IC50 in experiment [1] (setting [4]) was determined as 0.71 nM; in experiment [2], 0.42 nM; in experiment [3], 13 nM.
On to `N#Cc1ccc(Nc2cc(C(=O)Nc3cnccc3-c3ccc(F)cc3)ccn2)nc1` [Example 56, 2-((5-Cyanopyridin-2-yl)amino)-N-(4-(4-fluorophenyl)pyridin-3-yl)isonicotinamide], for which the values for the IC50 in experiment [1] (setting [4]), in experiment [2] and in experiment [3] were 2.4 nM, 0.98 nM and 36 nM, respectively.
For `CCCS(=O)(=O)c1ccncc1NC(=O)c1ccnc(Nc2ccc(C(F)(F)F)cn2)c1` [Example 182, N-(4-(Propylsulfonyl)pyridin-3-yl)-2-((5-(trifluoromethyl)pyridin-2-yl)amino)isonicotinamide], in that order: 5.2 nM, 2.1 nM and 15 nM.
The matching figures for `COc1ccc(Nc2cc(C(=O)Nc3cncc(-c4ccccc4F)c3)ccn2)nc1OC` [Example 151, 2-((5,6-Dimethoxypyridin-2-yl)amino)-N-(5-(2-fluorophenyl)pyridin-3-yl)isonicotinamide]: 6 nM, 2.4 nM and 510 nM.
For `CC1(C)CN(c2ccncc2NC(=O)c2ccnc(Nc3ccc(C#N)cn3)c2)CCO1` [Example 28, 2-((5-Cyanopyridin-2-yl)amino)-N-(4-(2,2-dimethylmorpholino)pyridin-3-yl)isonicotinamide], in that order: 0.55 nM, 0.37 nM and 16 nM.
Regarding `Cc1cc(Nc2cc(C(=O)Nc3cnccc3-c3ccccc3)ccn2)ncc1F` [Example 9, 2-((5-Fluoro-4-methylpyridin-2-yl)amino)-N-(4-phenylpyridin-3-yl)isonicotinamide], the IC50 in experiment [1] (setting [4]) is 4.1 nM; in experiment [2], 2.5 nM; in experiment [3], 110 nM.
For `CCCSc1ccncc1NC(=O)c1ccnc(Nc2ccc(C(F)(F)F)cn2)c1` [Example 170, N-(4-(Propylthio)pyridin-3-yl)-2-((5-(trifluoromethyl)pyridin-2-yl)amino)isonicotinamide], in that order: 0.75 nM, 0.21 nM and 49 nM.
As to `O=C(Nc1cncc(-c2ccccc2F)c1)c1ccnc(Nc2ccc3ccccc3n2)c1` [Example 142, N-(5-(2-Fluorophenyl)pyridin-3-yl)-2-(quinolin-2-ylamino)isonicotinamide], the results for the IC50 in experiment [1] (setting [4]), in experiment [2] and in experiment [3] were 23 nM, 5.6 nM and 2100 nM, respectively.
For `N#Cc1ccc(Nc2cc(C(=O)Nc3cnccc3-c3ccc(F)cc3F)ccn2)nc1` [Example 57, 2-((5-Cyanopyridin-2-yl)amino)-N-(4-(2,4-difluorophenyl)pyridin-3-yl)isonicotinamide], in that order: 1.3 nM, 0.59 nM and 19 nM.
For `O=C(Nc1cnccc1-c1ccc(F)cc1)c1ccnc(Nc2ccc(C(F)(F)F)cn2)c1` [Example 50, N-(4-(4-Fluorophenyl)pyridin-3-yl)-2-((5-(trifluoromethyl)pyridin-2-yl)amino)isonicotinamide], in that order: 2.1 nM, 0.86 nM and 54 nM.
As to `O=C(Nc1cncc(F)c1-c1ccccc1)c1ccnc(Nc2ccc(C(F)(F)F)cn2)c1` [Example 117, N-(5-Fluoro-4-phenylpyridin-3-yl)-2-((5-(trifluoromethyl)pyridin-2-yl)amino)isonicotinamide], the IC50 worked out at 3 nM in experiment [1] (setting [4]), 1.4 nM in experiment [2] and 254 nM in experiment [3].
On to `O=C(Nc1cncc(OCC(F)(F)F)c1)c1ccnc(Nc2cccc(C(F)(F)F)n2)c1` [Example 123, N-(5-(2,2,2-Trifluoroethoxy)pyridin-3-yl)-2-((6-(trifluoromethyl)pyridin-2-yl)amino)isonicotinamide], for which the figures for the IC50 in experiment [1], in experiment [2] and in experiment [3] were 7.4 nM, 3.2 nM and 520 nM, respectively.
Regarding `CC(C)C(O)c1cc(Cl)ncc1NC(=O)c1ccnc(Nc2ccc(C(F)(F)F)cn2)c1` (stereo not drawn) [Example 103, N-(6-Chloro-4-(1-hydroxy-2-methylpropyl)pyridin-3-yl)-2-((5-(trifluoromethyl)pyridin-2-yl)amino)isonicotinamide], the IC50 in experiment [1] (setting [4]) worked out at 6.7 nM; in experiment [2], 3.9 nM; in experiment [3], 540 nM.
With `CC1OC(C)(c2cc(Cl)ncc2NC(=O)c2ccnc(Nc3ccc(C(F)(F)F)cn3)c2)OC1C` (stereo not drawn) [Example 78, N-(6-Chloro-4-(2,4,5-trimethyl-1,3-dioxolan-2-yl)pyridin-3-yl)-2-((5-(trifluoromethyl)pyridin-2-yl)amino)isonicotinamide], the IC50 in experiment [1] (setting [4]) was 4.5 nM; in experiment [2] it was 3.2 nM; in experiment [3], 170 nM.
On to `N#CC1(c2ccc(Nc3cc(C(=O)Nc4cncc(-c5ccccc5F)c4)ccn3)nc2)CC1` [Example 163, 2-((5-(1-Cyanocyclopropyl)pyridin-2-yl)amino)-N-(5-(2-fluorophenyl)pyridin-3-yl)isonicotinamide], for which the IC50 was 3.2 nM in experiment [1] (setting [4]), 1.1 nM in experiment [2] and 610 nM in experiment [3].
The matching figures for `CC(O)c1ccncc1NC(=O)c1ccnc(Nc2ccc(C(F)(F)F)cn2)c1` (stereo not drawn) [Example 34, N-(4-(1-Hydroxyethyl)pyridin-3-yl)-2-((5-(trifluoromethyl)pyridin-2-yl)amino)isonicotinamide]: 3.2 nM, 1.4 nM and 37 nM.
The matching figures for `C[C@H]1CO[C@](c2cc(Cl)ncc2NC(=O)c2ccnc(Nc3ccc(C(F)(F)F)cn3)c2)(C2CC2)O1` [Example 97, N-(6-Chloro-4-((2R,4S)-2-cyclopropyl-4-methyl-1,3-dioxolan-2-yl)pyridin-3-yl)-2-((5-(trifluoromethyl)pyridin-2-yl)amino)isonicotinamide]: 1.5 nM, 0.56 nM and 84 nM.
Regarding `O=C(Nc1cncc(-c2ccccc2F)n1)c1ccnc(Nc2ccc(C(F)(F)F)cn2)c1` [Example 190, N-(6-(2-Fluorophenyl)pyrazin-2-yl)-2-((5-(trifluoromethyl)pyridin-2-yl)amino)isonicotinamide], the IC50 in experiment [1] (setting [4]) is 68 nM; in experiment [2] it was 29 nM; in experiment [3], 10000 nM.
`CC(C)(C#N)c1ccc(Nc2cc(C(=O)Nc3cnccc3-c3ccccc3)ccn2)nc1` [Example 61, 2-((5-(2-Cyanopropan-2-yl)pyridin-2-yl)amino)-N-(4-phenylpyridin-3-yl)isonicotinamide]: the IC50 in experiment [1] (setting [4]) is 1.5 nM; in experiment [2], 0.54 nM; in experiment [3], 150 nM.
